{"source": "patent US10351827B2", "about": "“Method for differentiating induced pluripotent stem cells into renal proximal tubular cell-like cells” (priority 2013, dated 2019)", "key": {"HPTCs": {"system": "HPTCs", "settings": "similar experiments performed with HPTCs; cited from earlier work"}, "PTC in humans": {"system": "PTC in humans", "settings": "cited from earlier work"}, "[1]": {"system": "hiPSC-derived HPTC-like cells", "test": "nephrotoxicology in vitro model based on interleukin-6/interleukin-8 expression (Example 1)"}, "[2]": {"system": "iPS(Foreskin)-4-derived d8 HPTC-like cells", "settings": "human, 16 h"}, "[3]": {"system": "hiPSC-derived HPTC-like cells"}, "OCT2": {"target": "OCT2 (Homo sapiens, UniProt O15244)", "sequence (O15244 whole entry)": "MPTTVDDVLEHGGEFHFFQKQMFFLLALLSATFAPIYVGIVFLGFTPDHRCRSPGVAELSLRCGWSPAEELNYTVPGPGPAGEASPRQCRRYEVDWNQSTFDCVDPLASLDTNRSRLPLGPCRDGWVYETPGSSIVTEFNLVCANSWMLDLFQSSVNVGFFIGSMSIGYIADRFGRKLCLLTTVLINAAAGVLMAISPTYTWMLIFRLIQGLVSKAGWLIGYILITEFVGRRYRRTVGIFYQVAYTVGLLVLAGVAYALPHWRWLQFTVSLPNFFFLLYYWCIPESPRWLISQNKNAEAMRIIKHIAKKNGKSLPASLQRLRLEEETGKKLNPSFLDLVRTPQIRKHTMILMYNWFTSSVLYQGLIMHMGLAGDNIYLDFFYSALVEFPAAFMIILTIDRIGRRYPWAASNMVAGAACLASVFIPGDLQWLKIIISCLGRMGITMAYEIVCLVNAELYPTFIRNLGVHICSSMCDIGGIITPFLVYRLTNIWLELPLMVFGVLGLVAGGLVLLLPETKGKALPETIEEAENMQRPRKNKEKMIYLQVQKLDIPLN", "settings": "co-incubation of 100 μg/ml rifampicin with 2 mM cimetidine, iPS(Foreskin)-4-derived d8 cells"}}, "note": "Like-named read-outs stand apart in the source and are kept apart here."}
{"compound": "C[n+]1ccc(-c2cc[n+](C)cc2)cc1", "note": "[Paraquat]", "values": [{"measurement": "cell numbers after treatment", "setting": "HPTCs", "value": "a decrease in cell numbers was not observed"}, {"measurement": "nephrotoxicity / toxicity for PTC in humans", "setting": "PTC in humans", "value": "directly toxic for PTC"}, {"measurement": "IL-6 expression after treatment", "setting": "[1]", "value": "increase"}]}
{"compound": "CO[C@H]1/C=C/O[C@@]2(C)Oc3c(C)c(O)c4c(O)c(c(/C=N/N5CCN(C)CC5)c(O)c4c3C2=O)NC(=O)/C(C)=C\\C=C\\[C@H](C)[C@H](O)[C@@H](C)[C@@H](O)[C@@H](C)[C@H](OC(C)=O)[C@@H]1C", "note": "[Rifampicin]", "values": [{"measurement": "IL6 Expression Levels", "setting": "[2]; 1 μg/ml", "value": "5.8 ± 0.9"}, {"measurement": "IL8 Expression Levels", "setting": "[2]; 1 μg/ml", "value": "2.5 ± 0.4"}, {"measurement": "IL6 Expression Levels", "setting": "[2]; 10 μg/ml", "value": "4.5 ± 0.3"}, {"measurement": "IL8 Expression Levels", "setting": "[2]; 10 μg/ml", "value": "3.4 ± 0.3"}, {"measurement": "IL6 Expression Levels", "setting": "[2]; 100 μg/ml", "value": "2.3 ± 0.2"}, {"measurement": "IL8 Expression Levels", "setting": "[2]; 100 μg/ml", "value": "9.7 ± 0.3"}, {"measurement": "increase of IL6 expression", "setting": "[2]; 100 μg/ml", "value": "~17", "unit": "fold"}, {"measurement": "increase of IL8 expression", "setting": "[2]; 100 μg/ml", "value": "~18", "unit": "fold"}, {"measurement": "IL6 Expression Levels", "setting": "[2]; 1000 μg/ml", "value": "9.3 ± 0.6"}, {"measurement": "IL8 Expression Levels", "setting": "[2]; 1000 μg/ml", "value": "18.2 ± 1.2"}, {"measurement": "IL-6 expression after treatment", "setting": "[3]", "value": "increase"}, {"measurement": "IL-8 expression after treatment", "setting": "[3]", "value": "increase"}]}
{"compound": "CN/C(=N/CCSCc1nc[nH]c1C)NC#N", "note": "[cimetidine]", "values": [{"measurement": "reduction of rifampicin-induced IL6 expression", "setting": "OCT2", "value": 40, "unit": "%"}, {"measurement": "reduction of rifampicin-induced IL8 expression", "setting": "OCT2", "value": 26, "unit": "%"}]}
{"compound": "Gentamicin", "values": [{"measurement": "cell numbers after treatment", "setting": "HPTCs", "value": "a decrease in cell numbers was not observed"}, {"measurement": "nephrotoxicity / toxicity for PTC in humans", "setting": "PTC in humans", "value": "directly toxic for PTC"}]}
